Values after ≈ are worked out from the molar mass of the structure shown. Active and inactive are the calls of the source. No cut-off for these calls is given here.
Tests used:
[1] = Inhibition of CDK1/cyclin B (unknown origin) in presence of ATP by time resolved-FRET assay; design: species or system Homo sapiens
[2] = biological target: CDK9/cyclin T1 (Homo sapiens, UniProt P50750); experiment: Inhibition of CDK9/Cyclin T1 (unknown origin) in presence of ATP by time resolved-FRET assay; type: protein-complex assay
Sequence of CDK9/cyclin T1 (O60563 whole entry): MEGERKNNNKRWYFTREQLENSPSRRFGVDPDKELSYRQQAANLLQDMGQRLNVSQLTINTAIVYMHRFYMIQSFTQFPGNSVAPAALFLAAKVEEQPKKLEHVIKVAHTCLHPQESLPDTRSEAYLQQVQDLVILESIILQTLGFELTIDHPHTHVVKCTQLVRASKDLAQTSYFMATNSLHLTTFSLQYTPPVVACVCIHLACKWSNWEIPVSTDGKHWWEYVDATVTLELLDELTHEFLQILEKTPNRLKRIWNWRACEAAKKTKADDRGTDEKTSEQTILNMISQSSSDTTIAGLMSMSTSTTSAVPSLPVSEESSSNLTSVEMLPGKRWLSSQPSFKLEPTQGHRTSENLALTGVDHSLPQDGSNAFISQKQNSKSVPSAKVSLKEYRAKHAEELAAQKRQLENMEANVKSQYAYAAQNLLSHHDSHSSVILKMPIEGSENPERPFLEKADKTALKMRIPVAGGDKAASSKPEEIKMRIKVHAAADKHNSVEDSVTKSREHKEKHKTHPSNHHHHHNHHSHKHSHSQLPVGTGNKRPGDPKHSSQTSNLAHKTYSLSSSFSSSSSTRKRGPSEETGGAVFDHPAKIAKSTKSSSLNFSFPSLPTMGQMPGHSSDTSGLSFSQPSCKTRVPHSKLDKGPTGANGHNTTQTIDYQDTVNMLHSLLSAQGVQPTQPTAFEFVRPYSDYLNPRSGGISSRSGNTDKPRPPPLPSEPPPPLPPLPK
Sequence of CDK9/cyclin T1 (P50750 whole entry): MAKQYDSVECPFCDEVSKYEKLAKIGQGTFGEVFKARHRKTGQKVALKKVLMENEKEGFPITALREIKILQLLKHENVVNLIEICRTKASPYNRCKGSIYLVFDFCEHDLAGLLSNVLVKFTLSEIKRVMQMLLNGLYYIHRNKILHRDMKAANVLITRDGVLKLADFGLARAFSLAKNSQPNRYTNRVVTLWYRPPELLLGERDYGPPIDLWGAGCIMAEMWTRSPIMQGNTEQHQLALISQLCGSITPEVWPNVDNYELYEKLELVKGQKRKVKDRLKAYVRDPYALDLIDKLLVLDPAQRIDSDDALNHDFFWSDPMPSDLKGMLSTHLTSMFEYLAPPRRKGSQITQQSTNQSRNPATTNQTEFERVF

[3] = test system: MCF7; experiment: Antiproliferative activity against human MCF7 cells assessed as cell growth inhibition incubated for 72 hrs by CCK-8 assay; type: functional
[4] = test system: MCF-10A; experiment: Antiproliferative activity against human MCF-10A cells assessed as cell growth inhibition incubated for 72 hrs by CCK-8 assay; type: functional
[5] = test system: MCF7; experiment: Antiproliferative activity against human MCF7 cells assessed as inhibition of cell growth at 1.5 to 6 uM incubated for 5 days by CCK-8 assay; type: functional, cell-based; conditions: dose 1.5-6 µM, time 5.0 day
[6] = test system: MCF7; experiment: Induction of cell cycle arrest in human MCF7 cells assessed as accumulation of cells at G1 phase at 1.5 uM incubated for 24 hrs by propidium iodide staining based flow cytometry analysis (reference value: 57.38%); type: functional
[7] = test system: MCF7; experiment: Induction of cell cycle arrest in human MCF7 cells assessed as accumulation of cells at G1 phase at 3 uM incubated for 24 hrs by propidium iodide staining based flow cytometry analysis (reference value: 57.38%); type: functional
[8] = test system: MCF7; experiment: Induction of cell cycle arrest in human MCF7 cells assessed as accumulation of cells at G1 phase at 6 uM incubated for 24 hrs by propidium iodide staining based flow cytometry analysis (reference value: 57.38%); type: functional
[9] = test system: MCF7; experiment: Induction of cell cycle arrest in human MCF7 cells assessed as accumulation of cells at G2 phase at 1.5 uM incubated for 24 hrs by propidium iodide staining based flow cytometry analysis (reference value: 29.66%); type: functional
[10] = test system: MCF7; experiment: Induction of cell cycle arrest in human MCF7 cells assessed as accumulation of cells at G2 phase at 3 uM incubated for 24 hrs by propidium iodide staining based flow cytometry analysis (reference value: 29.66%); type: functional
[11] = test system: MCF7; experiment: Induction of cell cycle arrest in human MCF7 cells assessed as accumulation of cells at G2 phase at 6 uM incubated for 24 hrs by propidium iodide staining based flow cytometry analysis (reference value: 29.66%); type: functional
[12] = test system: T47D; experiment: Induction of cell cycle arrest in human T47D cells assessed as accumulation of cells at G1 phase at 2 uM incubated for 24 hrs by propidium iodide staining based flow cytometry analysis (reference value: 69.55 %); type: functional
[13] = test system: T47D; experiment: Induction of cell cycle arrest in human T47D cells assessed as accumulation of cells at G1 phase at 1 uM incubated for 24 hrs by propidium iodide staining based flow cytometry analysis (reference value: 69.55 %); type: functional
[14] = test system: T47D; experiment: Induction of cell cycle arrest in human T47D cells assessed as accumulation of cells at G2 phase at 1 uM incubated for 24 hrs by propidium iodide staining based flow cytometry analysis (reference value: 16.57%); type: functional
[15] = test system: T47D; experiment: Induction of cell cycle arrest in human T47D cells assessed as accumulation of cells at G2 phase at 2 uM incubated for 24 hrs by propidium iodide staining based flow cytometry analysis (reference value: 16.57%); type: functional
[16] = test system: MCF7; experiment: Downregulation c-MYC level in human MCF7 cells incubated for 24 hrs by Western blot analysis; type: functional, cell-based; conditions: dose 1.5-5 µM, DDE = dose-dependent effect
[17] = test system: T47D; experiment: Downregulation c-MYC level in human T47D cells incubated for 24 hrs by Western blot analysis; type: functional, cell-based; conditions: dose 1-4 µM, DDE = dose-dependent effect
[18] = Thermodynamic solubility of the compound incubated for 24 hrs under shaking condition by LC-MS/MS analysis; type: physicochemical; conditions: read-out: Therm_solubility
[19] = biological target: CYP3A4 (Homo sapiens, UniProt P08684); experiment: Inhibition of CYP3A4 in human liver microsomes using testosterone as substrate at 10 uM preincubated for 5 mins followed by NADPH addition by LC-MS/MS analysis relative to control; type: ADME, Microsome; conditions: probe testosterone
Sequence of CYP3A4 (P08684 whole entry): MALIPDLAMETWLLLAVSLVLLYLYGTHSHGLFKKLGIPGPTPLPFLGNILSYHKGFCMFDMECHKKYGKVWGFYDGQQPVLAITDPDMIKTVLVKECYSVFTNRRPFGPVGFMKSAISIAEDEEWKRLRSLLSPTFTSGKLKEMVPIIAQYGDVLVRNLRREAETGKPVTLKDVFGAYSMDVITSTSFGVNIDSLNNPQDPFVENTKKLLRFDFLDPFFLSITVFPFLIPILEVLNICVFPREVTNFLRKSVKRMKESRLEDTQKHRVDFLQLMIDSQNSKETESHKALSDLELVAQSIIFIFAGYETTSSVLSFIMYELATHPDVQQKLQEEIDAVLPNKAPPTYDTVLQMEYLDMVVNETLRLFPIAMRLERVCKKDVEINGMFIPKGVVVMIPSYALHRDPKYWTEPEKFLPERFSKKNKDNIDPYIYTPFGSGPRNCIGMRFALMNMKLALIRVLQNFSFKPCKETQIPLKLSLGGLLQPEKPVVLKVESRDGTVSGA

[20] = MRT (0 to infinity) in Sprague-Dawley rat 1 mg/kg, iv by LC/MS/MS analysis; type: ADME, organism-based; conditions: in vivo
[21] = Tmax in Sprague-Dawley rat 1 mg/kg, iv by LC/MS/MS analysis; type: ADME, organism-based; conditions: in vivo
[22] = MRT (0 to infinity) in Sprague-Dawley rat 10 mg/kg, po by LC/MS/MS analysis; type: ADME, organism-based; conditions: in vivo
[23] = Half life in Sprague-Dawley rat 10 mg/kg, po by LC/MS/MS analysis; type: ADME, organism-based; conditions: in vivo
[24] = Oral bioavailability in Sprague-Dawley rat 10 mg/kg by LC/MS/MS analysis; type: ADME, organism-based; conditions: in vivo
[25] = Acute toxicity in ICR mouse assessed as change in heart weight at 1000 to 5000 mg/kg, po administered as single dose and measured every 2 days for 14 days; type: organism-based; conditions: in vivo, 336 h, dose 1000-5000 mg/kg, time 14 day
[26] = Acute toxicity in ICR mouse assessed as change in liver weight at 1000 to 5000 mg/kg, po administered as single dose and measured every 2 days for 14 days; type: organism-based; conditions: in vivo, 336 h, dose 1000-5000 mg/kg, time 14 day
[27] = Acute toxicity in ICR mouse assessed as change in spleen weight at 1000 to 5000 mg/kg, po administered as single dose and measured every 2 days for 14 days; type: organism-based; conditions: in vivo, 336 h, dose 1000-5000 mg/kg, time 14 day
[28] = Acute toxicity in ICR mouse assessed as change in lung weight at 1000 to 5000 mg/kg, po administered as single dose and measured every 2 days for 14 days; type: organism-based; conditions: in vivo, 336 h, dose 1000-5000 mg/kg, time 14 day
[29] = Acute toxicity in ICR mouse assessed as liver lesions at 5000 mg/kg, po administered as single dose and measured every 2 days for 14 days by H and E staining based analysis; type: organism-based; conditions: in vivo, 336 h, time 14 day
[30] = Acute toxicity in ICR mouse assessed as spleen lesions at 5000 mg/kg, po administered as single dose and measured every 2 days for 14 days by H and E staining based analysis; type: organism-based; conditions: in vivo, 336 h, time 14 day
[31] = Acute toxicity in ICR mouse assessed as lung lesions at 5000 mg/kg, po administered as single dose and measured every 2 days for 14 days by H and E staining based analysis; type: organism-based; conditions: in vivo, 336 h, time 14 day
[32] = test system: MCF7; experiment: Antitumor activity against human MCF7 cells xenografted in BALB/c mouse assessed as inhibition of tumor growth at 150 mg/kg, po administered once daily and measured every 2 days for 23 days; type: functional, organism-based; conditions: time 23.0 day

## CCN1CCc2cc(-c3nc(Nc4ccc(N5CCNCC5)cn4)ncc3F)ccc2C1=O
[1]
  IC50: > 10 µM
[2]
  IC50: 2.66 µM
[3]
  GI50: 2.7 µM
[4]
  GI50: 17.7 µM
[5]
  inhibition: Active
[6]
  Activity: 79.52%
[7]
  Activity: 83.91%
[8]
  Activity: 85.27%
[9]
  Activity: 13.57%
[10]
  Activity: 11.42%
[11]
  Activity: 10.67%
[12]
  Activity: 85.48%
[13]
  Activity: 83.14%
[14]
  Activity: 7.59%
[15]
  Activity: 6.06%
[16]
  Activity: Dde
[17]
  Activity: Dde
[18]
  solubility thermodynamic at 24 h: 1020 µg/mL (≈ 2280 µM)
[19]
  inhibition at 10 µM: 12.4%
[20]
  MRT inf: 3.5 h
[21]
  Tmax: 1.98 min
[22]
  MRT inf: 9.11 h
[23]
  half-life: 3.59 h
[24]
  bioavailability: 43%
[25]
  Activity: Non-Toxic
[26]
  Activity: Non-Toxic
[27]
  Activity: Non-Toxic
[28]
  Activity: Non-Toxic
[29]
  Activity: Non-Toxic
[30]
  Activity: Non-Toxic
[31]
  Activity: Non-Toxic
[32]
  inhibition: Active
